Assay results: patent US20160115540A1, “PRODRUGS AND DRUGS” (Biogen MA Inc., priority 2013, published 2016)
Where a name gives a salt, the structure may show the parent alone.

Tested on: blood and tissues
Experiment: Transcriptional profiling, multi-dosing regimen, naïve mice: blood and other tissues
Assay type: in vivo
Details: for Number of differentially expressed genes identified: Cerebellum / Number of differentially expressed genes identified: Lymph Node / Number of differentially expressed genes identified: Whole blood: Table 13: Naïve, Single Dose (so in the source), 12 h after last dosing
Experimental: In vivo, DMF is rapidly metabolized to monomethyl fumarate (MMF). […] Animals were exposed to CO2 and whole blood collected via cardiac puncture. Two 100 μl aliquots of whole blood were collected in 1.5 mL microcentrifuge tubes and snap frozen in liquid nitrogen. Peripheral (liver, spleen, kidney and jejunum) and CNS brain (cerebellum, hippocampus, striatum and cortex) tissues were harvested and snap frozen in liquid nitrogen, with special care taken to collect tissues of similar size and from the same location. All samples were stored at -80° C. until RNA extraction was conducted. For RNA preparation, frozen tissues were placed in 2 mL RNAse-free 96-well blocks with 1.5 mL QIAzol Lysis Reagent (QIAgen) and a 3.2 mm stainless steel bead (BioSpec Products, Bartlesville, Okla.). Tissues were disrupted for four cycles of 45 seconds in a Mini-Beadbeater (Biospec Products). RNA was extracted in chloroform and the aqueous phase was mixed with an equal volume of 70% ethanol. Extracted RNA was applied to RNeasy 96 plates and purified by the spin method according to the manufacturer's protocol (RNeasy 96 Universal Tissue Protocol, QIAgen, Hilden Germany). 50 ul of snap frozen mouse blood was re-suspended in lysis buffer with proteinase K and arrayed into deep-well plates for automated RNA extraction. RNA extractions were completed on […] (Beckman Coulter, Indianapolis, Ind.) using Agencourt RNAdvance Blood kit (Part number A35604) according to the manufacturer's specifications. RNA integrity was assessed using the HT RNA reagent kit (Part number 760410, Caliper Life Sciences, Hopkinton, Mass.) using a LabChip GX (PerkinElmer, Waltham, Mass.). RNA samples with a RQS score of >8.0 were considered high quality for downstream microarray processing. […] Two micrograms of biotin labeled […] probe were hybridized to Affymetrix GeneChip Affymetrix HT_MG-430_PM plate arrays with modified conditions as described in […] et al. Washing and staining of the hybridized arrays were completed as described in the GeneChip Expression analysis technical manual for HT plate arrays using the Genechip® Array Station (Affymetrix, Santa Clara, Calif.) with modifications as described in […] et al. The processed GeneChip® plate arrays were scanned using GeneTitan scanner (Affymetrix, Santa Clara, Calif.). Affymetrix scans were subject to quality control (QC) measures. These tests included a visual inspection of the distribution of raw signal intensities and an assessment of RNA degradation, relative log expression (RLE), and normalized unsealed standard error (NUSE). All sample scans that passed these QC metrics were included in the analysis. All CEL files were subjected to GC-content-based Robust Multi-array Average (GCRMA) normalization (version 2.20.0) (Irizarry R A, et al. Nucleic Acids Res 2003; 31:e15; Li C, et al. Genome Biol 2001; 2:[…]0032). […] Stat Appl Genet Mol Biol 2004; 3:Article3). […] Springer Science+Business Media 2005). Changes in gene expression were studied by applying a linear modeling approach to fit gene expression levels according to the defined groups of samples (e.g. DMF-, MMF-, and Vehicle-treated animals) and Bayesian posterior error analysis as implemented by Smyth (Smyth G K. Stat Appl Genet Mol Biol 2004; 3:Article3). The comparisons considered included: DMF-vs-MMF, DMF-vs-Vehicle, and MMF-vs-Vehicle. […] Very few DEGs are observed in blood and tissues derived from the central nervous system (brain, cerebellum, cortex, striatum, and spinal cord).

[1] = CEREBELLUM, 100DMF-vs-Veh, naïve multidose
[2] = LYMPH NODE, 100DMF-vs-Veh, naïve multidose
[3] = WHOLE BLOOD, 100DMF-vs-100MMF, naïve multidose

COC(=O)/C=C/C(=O)OC [DMF, dimethyl fumarate]
FC (1110020A21Rik 1439574_PM_at, WHOLE BLOOD, 100DMF-vs-Veh): −1.77
FC (8430427H17Rik 1428284_PM_at, WHOLE BLOOD, 100DMF-vs-Veh): −1.73
FC 1110021J02Rik (1419892_PM_at) [1]: 1.54
FC Aox1 (1419435_PM_at) [1]: 1.60
FC Apold1 (1441228_PM_at) [1]: 1.85
FC Cnnm3 (1420481_PM_at) [1]: 1.62
FC Prr15 (1452473_PM_at) [1]: 1.80
FC Rapgef4 (1421622_PM_a_at) [1]: −1.55
FC Tgm2 (1437277_PM_x_at) [1]: 1.51
FC probe 1457266_PM_at (no gene symbol) [1]: 1.51
FC Ccl6 (1420249_PM_s_at) [2]: 1.66
FC Ccl17 (1419413_PM_at) [2]: −1.57
FC Nqo1 (1423627_PM_at) [2]: 1.95
FC Nts (1422860_PM_at) [2]: 2.72
FC (Parm1 1424214_PM_at, WHOLE BLOOD, 100DMF-vs-Veh): −1.68
FC (Pla2g7 1430700_PM_a_at, WHOLE BLOOD, 100DMF-vs-Veh): 1.65
FC (Slc27a2 1416316_PM_at, WHOLE BLOOD, 100DMF-vs-Veh): −2.37
Number of differentially expressed genes identified: Cerebellum (100 mpk DMF-vs-90 mpk MMF): 0
Number of differentially expressed genes identified: Lymph Node (100 mpk DMF-vs-90 mpk MMF): 0
Number of differentially expressed genes identified: Whole blood (100 mpk DMF-vs-90 mpk MMF): 0
Number of differentially expressed genes identified: Cerebellum (100 mpk DMF-vs-Vehicle): 8
Number of differentially expressed genes identified: Lymph Node (100 mpk DMF-vs-Vehicle): 4
Number of differentially expressed genes identified: Whole blood (100 mpk DMF-vs-Vehicle): 5
FC 2610001J05Rik (1448002_PM_x_at) [3]: −4.35
FC 8430408G22Rik (1433836_PM_a_at) [3]: 1.78
FC A730017C20Rik (1437528_PM_x_at) [3]: 1.56
FC Aco1 (1456728_PM_x_at) [3]: 1.56
FC Cadm2 (1435146_PM_s_at) [3]: 1.50
FC Cdk7 (1424257_PM_at) [3]: 1.73
FC Cherp (1436885_PM_a_at) [3]: 1.53
FC Neo1 (1447694_PM_x_at) [3]: −3.98
